In assay [1] the test system is human podocyte cell line. As to the kind of experiment: TGFβ-induced apoptosis in human podocyte cell line (Cell Death Detection ELISA). It is filed as cell-based. The method, then: The percentage of the apoptotic cells was determined after 24 hours using the Cell Death Detection ELISA (Roche Diagnostics, Mannheim, Germany) according to the manufaturer's protocol.
On the technique in general: ELISA stands for enzyme-linked immunosorbent assay.

In assay [2] the test system is MM cells. As to the kind of experiment: Proliferation assay (CellTiter-Glo), concentration of 50% growth inhibition. Type of assay: cell-based. Conditions: Homo sapiens; read-out: Concentration at which 50% cell growth inhibition was observed. On the procedure: Human MM cell lines used were as follows: NCI-H929, OPM-2, LP-1, RPMI-8226, U266 (DSMZ, Braunschweig, Germany). Cell lines were cultured in RPMI 1640 medium (Biochrom, Berlin, Germany) supplemented with 10% heat-inactivated fetal calf serum (FCS, Gibco, Karlsruhe, Germany), 1 mM sodium pyruvate and 100 units/ml penicillin and 100 μg/ml streptomycin (Gibco). Human osteoclasts were obtained as described in the reference of Zavrski I, Krebbel H, Wildemann B, et al. Proteasome inhibitors abrogate osteoclast differentiation and osteoclast function. Biochem Biophys Res Commun. 2005; 333:200-205. Briefly, peripheral blood mononuclear cells (PBMC) were isolated from whole blood of healthy volunteers, using a Ficoll-Hypaque density gradient. The adherent fraction of the isolated mononuclear cells was cultured for 21 days in MEM medium (Sigma-Aldrich Chemie, Taufkirchen, Germany) supplemented with 10% FCS, 100 U/ml penicillin, 100 μg/ml streptomycin, 50 ng/ml M-CSF, and 25 ng/ml RANKL (osteoclastogenic medium), before coculture experiments and treatment with the inventive compounds started. Human osteoblasts were obtained according to Robey P G, Termine J D. Human bone cells in vitro. Calcif Tissue Int. 1985; 37:453-460 as described in Hecht M, Heider U, Kaiser M, von Metzler I, Sterz J, Sezer O. Osteoblasts promote migration and invasion of myeloma cells through upregulation of matrix metalloproteinases, urokinase plasminogen activator, hepatocyte growth factor and activation of p38 MAPK. Br J Haematol. 2007; 138: 446-458. Briefly, trabecular bone specimens from patients without malignant disease undergoing knee or hip surgery were minced and washed to remove bone marrow cells. The bone fragments were resuspended in Dulbecco's modified Eagle's medium (DMEM)/HAM's F12 medium (Biochrom, Berlin, Germany) supplemented with 10% FCS and cultured in tissue culture flasks until a confluent cell monolayer was obtained. Culturing of functional osteoblasts was confirmed by alkaline phosphatase (ALP) staining (kit from Sigma, USA), realtime RT-PCR analysis of expression of osteoblast markers (ALP, osteocalcin) and by von-Kossa staining before coculture and treatment experiments were started.
The compound according to example 1, hereinafter referred to as GSI15, (compound RH02015SC, Maybridge, Acros Organics, Geel, Belgium) was freshly dissolved as 26 mM stock solution in Dimethylsulfoxide (DMSO). Multiple myeloma therapeutics used were melphalan (marketed as Alkeran®, GlaxoSmithKline, Munich, Germany) and bortezomib (marketed as Velcade®, Janssen-Cilag, Neuss, Germany). Melphalan was freshly dissolved at 10 mg/ml in 0.9% NaCl-solution. Bortezomib was freshly dissolved at 100 ng/ml in 0.9% NaCl solution. Gamma Secretase Inhibitor (GSI) treatment for apoptosis assessment by AnnexinV/PI staining, cell cycle analysis and coculture experiments was performed in 6-well plates. GSI15 stock solution was added directly to the cell suspension. GSI treatment for assaying proliferation was performed in 96-well plates. 10,000 cells per well were seeded in 50 μl medium per well before 50 μl of a 2× solution of GSI15 prediluted in medium were added per well. […]
For assaying proliferation/viability of cells CellTiter-Glo Luminescent Cell Viability Assay (Promega, Mannheim, Germany) was used. In this assay the number of viable cells at a given time point is determined by quantification of ATP present, which serves as a measure of metabolically active cells. […]
On the technique in general: In ATP-based viability assays light output follows the ATP content of the culture.

Assay [3] concerns male Sprague-Dawley rats. As to the kind of experiment: PAN-model of albuminuric glomerular disease. It is filed as in vivo, rat. Particulars: day 5, 500 μg/100 g rat i.p. once per day, compared to PAN alone. On the procedure: For the in vivo studies male Sprague-Dawley rats were purchased from Charles River and treated with puromycin aminoglycoside (PAN) to induce albuminuric glomerular disease as described previously (Niranjan et al., “The Notch pathway in podocytes plays a role in the development of glomerular disease.” Nat. Med. 14: 290-298, 2008). Rats were injected PAN (150 mg/kg) once. The test compounds were administered intraperitoneally (500 μg/100 g rat) once per day (n=4 animals per group). Injection of test compounds were started one day after PAN injection. All studies were performed in accordance with the European Union normative. As a positive control one group of rats received gamma secretase inhibitor DAPT.
Urinary albumine was measured at the indicated days as described previously (Sanchez-Nino et al., “The MIF receptor CD74 in diabetic podocyte injury”. J. Am. Soc. Nephrol. 20: 353-362, 2009). For total protein measurement urine samples were centrifuged and pellets were diluted in distilled water. Exton reagent (230 mM sulfosalic acid, 1.4 M sodium sulfate) was added and after 10 minutes absorbance was measured at 620 nm.

Assay [4] relates to OPM-2 cells. As to the kind of experiment: Apoptosis by AnnexinV-FITC/PI staining, OPM-2. Type of assay: cell-based, human. Conditions: for cell death: OPM-2, 24 h or 48 h, single agent. On the procedure:
The compound according to example 1, hereinafter referred to as GSI15, (compound RH02015SC, Maybridge, Acros Organics, Geel, Belgium) was freshly dissolved as 26 mM stock solution in Dimethylsulfoxide (DMSO). Multiple myeloma therapeutics used were melphalan (marketed as Alkeran®, GlaxoSmithKline, Munich, Germany) and bortezomib (marketed as Velcade®, Janssen-Cilag, Neuss, Germany). Melphalan was freshly dissolved at 10 mg/ml in 0.9% NaCl-solution. Bortezomib was freshly dissolved at 100 ng/ml in 0.9% NaCl solution. Gamma Secretase Inhibitor (GSI) treatment for apoptosis assessment by AnnexinV/PI staining, cell cycle analysis and coculture experiments was performed in 6-well plates. GSI15 stock solution was added directly to the cell suspension. GSI treatment for assaying proliferation was performed in 96-well plates. 10,000 cells per well were seeded in 50 μl medium per well before 50 μl of a 2× solution of GSI15 prediluted in medium were added per well. Melphalan and bortezomib treatment as well as their combination with GSI15 for assaying apoptosis by AnnexinV/PI staining was done in 6-well plates. All inhibitors were added directly to the cells in 6-well plates.
For cell cycle analysis 2×10^5 cells were spun down, medium was aspirated and cells washed with PBS. Cells were then resuspended in 250 μl PBS. 1 ml ice-cold 70% ethanol was added, followed by overnight incubation at −20° C. Cells were spun down, the pellet washed with PBS and then resuspended in 200 μl PBS containing 0.15 mg/ml RNaseA and 30 μg/ml propidium iodide (PI). After 10 minutes incubation in the dark at room temperature, cells were analyzed by flow cytometry. The amount of apoptotic cells was determined by AnnexinV/propidium iodide staining using Human AnnexinV-FITC Kit (Bender Medsystems, Vienna, Austria), according to manufacturer's protocol. Briefly, 2×10^5 cells were spun down and washed with PBS, followed by 10 minutes incubation in binding buffer containing AnnexinV-FITC conjugate. Cells were then spun down again, resuspended in binding buffer containing PI and analyzed by flow cytometry.

In assay [1] (1 μM, compared to TGFβ alone, 24 hours), `C[C@H](NC(=O)Cc1cc(F)cc(F)c1)C(=O)N[C@H](C(=O)OC(C)(C)C)c1ccccc1` [DAPT, reference compound] yielded an inhibition of apoptosis of 37%.
In general, inhibition refers to the drop in the measured response relative to a control, in per cent. High values mean a strong effect, low ones a weak effect. On to `CC(C)(C)c1ccc(Oc2ncccc2NS(=O)(=O)c2ccccc2C(F)(F)F)cc1` [Example 2, N-(2-(4-tert-butylphenoxy)pyridin-3-yl)-2-(trifluoromethyl)benzenesulfonamide], for which the IC50 in assay [2] amounted to 30 µM. In assay [3], this compound showed an inhibition of albuminuria of 42% and an inhibition of proteinuria of 37%. In addition, in assay [1], the “effect in podocyte cell culture experiments” value was “positive effect”. Also, in assay [1] (Homo sapiens, 3 μM, compared to TGFβ alone, 24 hours), the inhibition at 3 µM was determined as 27%. The inhibition at 10 µM in assay [1] (Homo sapiens, 10 μM, compared to TGFβ alone, 24 hours) turned out to be 27%.
In the case of `Cc1ccc(Sc2ncccc2NS(=O)(=O)c2ccc(Cl)cc2)cc1` [Example 3, 4-chloro-N-(2-(p-tolylthio)pyridin-3-yl)benzenesulfonamide], the IC50 in assay [2] was determined as 30 µM.
Still for that read-out and setting: then `CC(Sc1nc(=O)cc(N)n1CCc1ccccc1)C(=O)Nc1cccc(Cl)c1` (stereo not shown) [Example 4, 2-(6-amino-4-oxo-1-phenethyl-1,4-dihydropyrimidin-2-ylthio)-N-(3-chlorophenyl)propanamide], with 20 µM; and `Nc1cc(=O)nc(SCC(=O)Nc2ccc(Cl)cc2)n1CCc1ccccc1` [Example 5, 2-(6-amino-4-oxo-1-phenethyl-1,4-dihydropyrimidin-2-ylthio)-N-(4-chlorophenyl)acetamide], with 20 µM.
Consider `CC(C)C[C@H](NC(=O)[C@H](Cc1ccccc1)NC(=O)c1cnccn1)B(O)O` [bortezomib], for which, in assay [4], the cell death entry is “dose-dependently triggered cell death”.
On to `N[C@@H](Cc1ccc(N(CCCl)CCCl)cc1)C(=O)O` [melphalan], for which the apoptotic cells in assay [4] (OPM-2, 50 μM melphalan alone, 24 h) is listed as 32%. The cell death result in assay [4] was “dose-dependently triggered cell death”.
